Data taken from the NIST ThermoML archive (doi:10.1016/j.jct.2005.12.005).
± gives the expanded uncertainty stated by the source.

How the values were obtained:
[1] = 101 kPa, Liquid; for speed of sound: Sing-around technique in a fixed-path interferometer
[2] = refractive index (Na D-line) (dimensionless); conditions: 101.33 kPa, Liquid
[3] = xn = mol fraction of the nth substance listed; conditions: 101 kPa, Liquid; for speed of sound: Sing-around technique in a fixed-path interferometer
[4] = refractive index (Na D-line) (dimensionless); xn = mol fraction of the nth substance listed; conditions: 101 kPa, Liquid

CC1CCCCC1 [methylcyclohexane]
Conditions | mass density, 298.15 K [kg/m3] | mass density, 303.15 K [kg/m3] | mass density, 308.15 K [kg/m3] | refractive index, 298.15 K | refractive index, 303.15 K | refractive index, 308.15 K | speed of sound, 298.15 K [m/s] | viscosity, 298.15 K [mPa·s] | viscosity, 303.15 K [mPa·s] | viscosity, 308.15 K [mPa·s]
[1] | 765 ± 0.9 | 760.7 ± 0.9 | 756.3 ± 0.9 | – | – | – | 1217 ± 5 | 0.676 ± 0.009 | 0.631 ± 0.009 | 0.59 ± 0.008
[2] | – | – | – | 1.4217 ± 0.001 | 1.4192 ± 0.001 | 1.4163 ± 0.001 | – | – | – | –

Cc1ccccc1 [toluene]
Conditions | mass density, 298.15 K [kg/m3] | mass density, 303.15 K [kg/m3] | mass density, 308.15 K [kg/m3] | refractive index, 298.15 K | refractive index, 303.15 K | refractive index, 308.15 K | speed of sound, 298.15 K [m/s] | viscosity, 298.15 K [mPa·s] | viscosity, 303.15 K [mPa·s] | viscosity, 308.15 K [mPa·s]
[1] | 862.3 ± 0.5 | 857.6 ± 0.6 | 852.9 ± 0.6 | – | – | – | 1314 ± 5 | 0.559 ± 0.008 | 0.526 ± 0.007 | 0.497 ± 0.007
[2] | – | – | – | 1.4931 ± 0.0009 | 1.4902 ± 0.0009 | 1.4874 ± 0.0009 | – | – | – | –

COc1ccccc1 [anisole]
Conditions | mass density, 298.15 K [kg/m3] | mass density, 303.15 K [kg/m3] | mass density, 308.15 K [kg/m3] | refractive index, 298.15 K | refractive index, 303.15 K | refractive index, 308.15 K | speed of sound, 298.15 K [m/s] | viscosity, 298.15 K [mPa·s] | viscosity, 303.15 K [mPa·s] | viscosity, 308.15 K [mPa·s]
[1] | 989.2 ± 0.4 | 984.5 ± 0.4 | 979.8 ± 0.4 | – | – | – | 1410 ± 6 | 1.008 ± 0.013 | 0.929 ± 0.012 | 0.861 ± 0.012
[2] | – | – | – | 1.5136 ± 0.0025 | 1.5112 ± 0.0025 | 1.5088 ± 0.0025 | – | – | – | –

Cc1cc(C)cc(C)c1 [1,3,5-trimethylbenzene]
Conditions | mass density, 298.15 K [kg/m3] | mass density, 303.15 K [kg/m3] | mass density, 308.15 K [kg/m3] | refractive index, 298.15 K | refractive index, 303.15 K | refractive index, 308.15 K | speed of sound, 298.15 K [m/s] | viscosity, 298.15 K [mPa·s] | viscosity, 303.15 K [mPa·s] | viscosity, 308.15 K [mPa·s]
[1] | 861.2 ± 1.1 | 857.1 ± 1.1 | 853 ± 1.1 | – | – | – | 1346 ± 6 | 0.667 ± 0.011 | 0.622 ± 0.01 | 0.586 ± 0.01
[2] | – | – | – | 1.496 ± 0.0025 | 1.4936 ± 0.0025 | 1.4913 ± 0.0025 | – | – | – | –

COc1ccccc1 [anisole] + CC1CCCCC1
Conditions | mass density, 298.15 K [kg/m3] | mass density, 303.15 K [kg/m3] | mass density, 308.15 K [kg/m3] | refractive index, 298.15 K | refractive index, 303.15 K | refractive index, 308.15 K | speed of sound, 298.15 K [m/s] | viscosity, 298.15 K [mPa·s] | viscosity, 303.15 K [mPa·s] | viscosity, 308.15 K [mPa·s]
[3], x2 = 0 | 989.2 ± 0.4 | 984.5 ± 0.4 | 979.8 ± 0.4 | – | – | – | 1410 ± 6 | 1.008 ± 0.013 | 0.929 ± 0.012 | 0.861 ± 0.012
[3], x2 = 0.1025 | 962.1 ± 0.5 | 957.4 ± 0.5 | 952.7 ± 0.5 | – | – | – | 1391 ± 6 | 0.924 ± 0.012 | 0.905 ± 0.06 | 0.808 ± 0.011
[3], x2 = 0.2009 | 936.5 ± 0.5 | 931.8 ± 0.5 | 927.2 ± 0.5 | – | – | – | 1372 ± 6 | 0.854 ± 0.012 | 0.792 ± 0.011 | 0.737 ± 0.01
[3], x2 = 0.3006 | 911.8 ± 0.6 | 907.2 ± 0.6 | 902.6 ± 0.6 | – | – | – | 1352 ± 6 | 0.793 ± 0.011 | 0.734 ± 0.01 | 0.693 ± 0.01
[3], x2 = 0.406 | 886.7 ± 0.6 | 882.2 ± 0.6 | 877.6 ± 0.6 | – | – | – | 1333 ± 5 | 0.75 ± 0.01 | 0.694 ± 0.01 | 0.654 ± 0.009
[3], x2 = 0.5043 | 864.4 ± 0.7 | 860.1 ± 0.7 | 855.4 ± 0.7 | – | – | – | 1314 ± 5 | 0.717 ± 0.01 | 0.664 ± 0.009 | 0.627 ± 0.009
[3], x2 = 0.6058 | 842.2 ± 0.7 | 837.8 ± 0.7 | 833.3 ± 0.7 | – | – | – | 1294 ± 5 | 0.689 ± 0.01 | 0.645 ± 0.009 | 0.605 ± 0.009
[3], x2 = 0.7026 | 821.9 ± 0.7 | 817.3 ± 0.8 | 813 ± 0.8 | – | – | – | 1275 ± 5 | 0.675 ± 0.009 | 0.634 ± 0.009 | 0.593 ± 0.009
[3], x2 = 0.8023 | 801.8 ± 0.8 | 797.4 ± 0.8 | 792.9 ± 0.8 | – | – | – | 1256 ± 5 | 0.667 ± 0.009 | 0.621 ± 0.009 | 0.584 ± 0.008
[3], x2 = 0.9053 | 782.1 ± 0.8 | 777.8 ± 0.8 | 773.4 ± 0.8 | – | – | – | 1236 ± 5 | 0.666 ± 0.009 | 0.622 ± 0.009 | 0.583 ± 0.008
[4], x2 = 0 | – | – | – | 1.5136 ± 0.0025 | 1.5112 ± 0.0025 | 1.5088 ± 0.0025 | – | – | – | –
[4], x2 = 0.1025 | – | – | – | 1.5023 ± 0.0025 | 1.5036 ± 0.0025 | 1.4978 ± 0.0025 | – | – | – | –
[4], x2 = 0.2009 | – | – | – | 1.4917 ± 0.0025 | 1.489 ± 0.0025 | 1.487 ± 0.0025 | – | – | – | –
[4], x2 = 0.3006 | – | – | – | 1.4813 ± 0.0025 | 1.4801 ± 0.0025 | 1.4766 ± 0.0025 | – | – | – | –
[4], x2 = 0.406 | – | – | – | 1.4706 ± 0.0025 | 1.4701 ± 0.0025 | 1.4659 ± 0.0025 | – | – | – | –
[4], x2 = 0.5043 | – | – | – | 1.4609 ± 0.0025 | 1.4586 ± 0.0025 | 1.4563 ± 0.0025 | – | – | – | –
[4], x2 = 0.6058 | – | – | – | 1.4516 ± 0.0025 | 1.4497 ± 0.0025 | 1.4467 ± 0.0025 | – | – | – | –
[4], x2 = 0.7026 | – | – | – | 1.4431 ± 0.0025 | 1.4408 ± 0.0025 | 1.4382 ± 0.0025 | – | – | – | –
[4], x2 = 0.8023 | – | – | – | 1.4351 ± 0.0025 | 1.4323 ± 0.0025 | 1.4301 ± 0.0025 | – | – | – | –
[4], x2 = 0.9053 | – | – | – | 1.4278 ± 0.0025 | 1.4242 ± 0.0025 | 1.4226 ± 0.0025 | – | – | – | –

c1ccccc1 [benzene]
Conditions | mass density, 298.15 K [kg/m3] | mass density, 303.15 K [kg/m3] | mass density, 308.15 K [kg/m3] | refractive index, 298.15 K | refractive index, 303.15 K | refractive index, 308.15 K | speed of sound, 298.15 K [m/s] | viscosity, 298.15 K [mPa·s] | viscosity, 303.15 K [mPa·s] | viscosity, 308.15 K [mPa·s]
[1] | 873.4 ± 0.5 | 868.1 ± 0.5 | 862.7 ± 0.5 | – | – | – | 1302 ± 5 | 0.602 ± 0.008 | 0.56 ± 0.008 | 0.523 ± 0.007
[2] | – | – | – | 1.4971 ± 0.0009 | 1.4936 ± 0.0009 | 1.4903 ± 0.0009 | – | – | – | –

c1ccccc1 [benzene] + CC1CCCCC1
x2 = 0
Conditions | mass density, 298.15 K [kg/m3] | mass density, 303.15 K [kg/m3] | mass density, 308.15 K [kg/m3] | refractive index, 298.15 K | refractive index, 303.15 K | refractive index, 308.15 K | speed of sound, 298.15 K [m/s] | viscosity, 298.15 K [mPa·s] | viscosity, 303.15 K [mPa·s] | viscosity, 308.15 K [mPa·s]
[3] | 873.4 ± 0.5 | 868.1 ± 0.5 | 862.7 ± 0.5 | – | – | – | 1302 ± 5 | 0.602 ± 0.008 | 0.56 ± 0.008 | 0.523 ± 0.007
[4] | – | – | – | 1.4971 ± 0.0009 | 1.4936 ± 0.0009 | 1.4903 ± 0.0009 | – | – | – | –

Cc1ccc(C)cc1 [1,4-dimethylbenzene]
Conditions | mass density, 298.15 K [kg/m3] | mass density, 303.15 K [kg/m3] | mass density, 308.15 K [kg/m3] | refractive index, 298.15 K | refractive index, 303.15 K | refractive index, 308.15 K | speed of sound, 298.15 K [m/s] | viscosity, 298.15 K [mPa·s] | viscosity, 303.15 K [mPa·s] | viscosity, 308.15 K [mPa·s]
[1] | 856.7 ± 0.9 | 852.3 ± 0.9 | 848 ± 0.9 | – | – | – | 1326 ± 6 | 0.611 ± 0.009 | 0.572 ± 0.009 | 0.54 ± 0.008
[2] | – | – | – | 1.4926 ± 0.001 | 1.4893 ± 0.001 | 1.4867 ± 0.001 | – | – | – | –

CC1CCCCC1 [methylcyclohexane] + Cc1cc(C)cc(C)c1
x1 = 1
Conditions | mass density, 298.15 K [kg/m3] | mass density, 303.15 K [kg/m3] | mass density, 308.15 K [kg/m3] | refractive index, 298.15 K | refractive index, 303.15 K | refractive index, 308.15 K | speed of sound, 298.15 K [m/s] | viscosity, 298.15 K [mPa·s] | viscosity, 303.15 K [mPa·s] | viscosity, 308.15 K [mPa·s]
[3] | 765 ± 0.9 | 760.7 ± 0.9 | 756.3 ± 0.9 | – | – | – | 1217 ± 5 | 0.676 ± 0.009 | 0.631 ± 0.009 | 0.59 ± 0.008
[4] | – | – | – | 1.4217 ± 0.0025 | 1.4192 ± 0.0025 | 1.4163 ± 0.0025 | – | – | – | –
